Source: PubChem BioAssay (NCI)
Several values for one entry are separate records, joined by “and”; a condition that tells them apart may be missing. Equal entries are not always repeated.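 Results reflect a 48-hour exposure of cells in 96-well plates to compound at five concentrations. Here, GI50 denotes the concentration required for 50% inhibition of growth. Definition used: TGI = concentration required for complete inhibition of growth.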

How the values were obtained:
Experiment in all cases: inhibition of tumour cell growth, NCI panel, 48 h
[1] = tested on: UO-31 renal
[2] = tested on: UACC-257 melanoma
[3] = tested on: COLO 205 colon
[4] = tested on: SK-MEL-2 melanoma
[5] = tested on: OVCAR-8 ovarian
[6] = tested on: RPMI-8226 leukemia
[7] = tested on: HS 578T breast
[8] = tested on: SK-OV-3 ovarian

Structure (SMILES)	GI50 [1]	TGI [1]	GI50 [2]	TGI [2]	GI50 [3]	TGI [3]	GI50 [4]	TGI [4]	GI50 [5]	TGI [5]	GI50 [6]	TGI [6]	GI50 [7]	TGI [7]	GI50 [8]	TGI [8]
CN(c1cccc(C(=O)O)c1)c1cc(O/N=[N+](\[O-])N(C)C)c([N+](=O)[O-])cc1[N+](=O)[O-]	> 100 µM	> 100 µM	> 100 µM	> 100 µM	> 100 µM	> 100 µM	> 100 µM	> 100 µM	> 100 µM	> 100 µM	> 100 µM	> 100 µM	> 100 µM	> 100 µM	–	–
COc1ccc(-n2nc(C)c3c(Nc4ccc(NC(=O)Nc5cccc(C(F)(F)F)c5)cc4)ncnc32)cc1	1.51 µM	2.86 µM	1.88 µM	4.18 µM	1.65 µM	3.49 µM	2.04 µM	4.01 µM	1.93 µM	4.39 µM	1.78 µM	4.69 µM	1.66 µM	4.17 µM	2.13 µM	5.3 µM
Cc1cccc(CNc2c3ccccc3nc3ccccc23)c1	1.19 µM	2.62 µM	2.11 µM	5.05 µM	1.69 µM	3.89 µM	1.94 µM	4.14 µM	2.48 µM	9.82 µM	1.87 µM	4.94 µM	2.2 µM	6.6 µM	2.61 µM	10.5 µM
COc1ccc(C2=Nn3c(nnc3-c3ccc(F)c(Cl)c3)SC2)cc1	> 100 µM	> 100 µM	> 100 µM	> 100 µM	> 100 µM	> 100 µM	> 100 µM	> 100 µM	> 100 µM	> 100 µM	> 100 µM	> 100 µM	> 100 µM	> 100 µM	> 100 µM	> 100 µM
COC(=O)c1csc(-c2csc(CCNC(=O)OC(C)(C)C)n2)n1	–	> 100 µM	–	> 100 µM	–	> 100 µM	–	–	–	> 100 µM	–	> 100 µM	–	> 100 µM	–	> 100 µM
CC(=O)c1cc2c(Br)cccc2oc1=O	–	–	–	> 100 µM	–	> 100 µM	–	> 100 µM	–	> 100 µM	–	> 100 µM	–	> 100 µM	–	–
COC(=O)NC1(NC(=O)OC)NC(=O)c2ccccc2N1	–	> 100 µM	–	> 100 µM	–	> 100 µM	–	> 100 µM	–	> 100 µM	–	–	–	> 100 µM	–	> 100 µM
O=[N+]([O-])c1ccc(Sc2cccc[n+]2[O-])c2nonc12	5.24 µM	17.4 µM	11.5 µM	24.7 µM	0.949 µM	2.51 µM	13.5 µM	36.3 µM	9.93 µM	> 67.6 µM	2.12 µM	> 100 µM	3.66 µM	28.1 µM	30 µM	> 100 µM
O=C(O)/C=C/c1c2ccc(=O)c(O)c-2oc2c(O)c(O)ccc12	–	> 100 µM	–	> 100 µM	–	> 100 µM	–	> 100 µM	–	> 100 µM	–	55.9 µM	–	> 100 µM	–	> 100 µM
COc1ccc(C2=C(c3ccc(OC)cc3)C(=O)OC2)cc1	3.18 µM	> 43.5 µM	40.1 µM	> 100 µM	1.38 µM	> 100 µM	1.48 µM	> 48.6 µM	1.35 µM	> 52.3 µM	1.71 µM	11.4 µM	0.604 µM	3.93 µM	2.2 µM	> 100 µM
CC(C)(C)OC(=O)N(CCCCN(CCCn1c2c(c3ccccc3c1=O)C(=O)c1ccccc1-2)C(=O)OC(C)(C)C)CCCn1c2c(c3ccccc3c1=O)C(=O)c1ccccc1-2	28.4 µM	> 100 µM	–	–	> 100 µM	> 100 µM	65.1 µM	> 100 µM	> 100 µM	> 100 µM	17.9 µM	69.1 µM	13.1 µM	59.6 µM	> 100 µM	> 100 µM
O=C(c1ccc(Cl)cc1Cl)N1CCN(C(=O)c2ccc(Cl)cc2Cl)C1=S	–	–	28.2 µM	63.4 µM	21 µM	37.7 µM	18.4 µM	36.2 µM	22.1 µM	48.5 µM	–	30.7 µM	41 µM	> 100 µM	22.8 µM	55.4 µM
CNc1c2ccccc2nc2occ(Cl)c12	31.3 µM	> 100 µM	–	–	30.6 µM	> 100 µM	> 100 µM	> 100 µM	37.7 µM	> 100 µM	16 µM	39.8 µM	20.9 µM	79.3 µM	36.8 µM	> 100 µM
Nc1[nH]nc(Nc2ccccc2)c1-c1nc2ccccc2s1	1.33 µM	7.16 µM	–	–	1.89 µM	3.92 µM	2.77 µM	8.9 µM	2.36 µM	5.98 µM	2.24 µM	6.65 µM	2.53 µM	9.86 µM	4.63 µM	15.7 µM
O=CNC(Cc1cnc[nH]1)C(=O)O (stereo not drawn)	–	> 100 µM	–	> 100 µM	–	> 100 µM	–	> 100 µM	–	> 100 µM	–	> 100 µM	–	> 100 µM	–	> 100 µM
COc1cc(C[C@H]2COC(=O)[C@]2(O)Cc2ccc(OCc3ccccc3)c(OC)c2)ccc1OCc1ccccc1	35.5 µM	> 100 µM	16 µM	> 100 µM	5.16 µM	24.1 µM	> 100 µM	> 100 µM	12.3 µM	> 100 µM	71.9 µM	> 100 µM	42.9 µM	> 100 µM	> 100 µM	> 100 µM
CC(NCCN(C)C)C1CCC2C3CCc4cc(O)ccc4C3CCC12C (stereo not drawn)	–	3.76 µM	–	3.83 µM	–	3.54 µM	–	3.79 µM	–	11 µM	–	7.35 µM	–	18.1 µM	–	15.9 µM
COc1cc(/C=C/C(=O)c2c(C)n([O-])c3ccccc3[n+]2=O)cc(OC)c1OC	4.5 µM	17.5 µM	6.48 µM	20.5 µM	9.08 µM	24.9 µM	4.63 µM	17.2 µM	4.43 µM	17.7 µM	3.58 µM	22.8 µM	3.51 µM	21 µM	11 µM	25.5 µM

Structure (SMILES)	GI50 [1]	TGI [1]	GI50 [2]	TGI [2]	GI50 [3]	TGI [3]	GI50 [4]	TGI [4]	GI50 [5]	TGI [5]	GI50 [6]	TGI [6]	GI50 [7]	TGI [7]	GI50 [8]	TGI [8]
CCN1C(=O)N(CC)C2C1NN=c1s/c(=C3\C(=O)Nc4ccccc43)c(=O)n12 (stereo not drawn)	1.09 µM	> 100 µM	25.2 µM	> 100 µM	0.445 µM	> 57.5 µM	1.34 µM	30 µM	0.639 µM	> 53.7 µM	0.306 µM	6.06 µM	0.347 µM	17.7 µM	0.781 µM	29.6 µM
C[C@H]1C[C@@H](n2c(Nc3ccc(OC(F)(F)F)cc3)nc3cc(CCC(=O)O)ccc32)CC(C)(C)C1	9.38 µM	21.5 µM	16.6 µM	39.4 µM	18.8 µM	39.4 µM	15 µM	34.6 µM	13.2 µM	35.1 µM	10.1 µM	50.9 µM	10.5 µM	31.1 µM	20 µM	35.4 µM
COc1ccc(-c2cn(C)c3c2-n2cccc2C3=O)cc1O	16.1 µM	> 100 µM	15.9 µM	32.9 µM	17.1 µM	38.8 µM	19.7 µM	55.3 µM	19.7 µM	> 100 µM	2.05 µM	17.5 µM	0.611 µM	3.9 µM	5.86 µM	94.7 µM
CCc1nc(N)nc(N)c1C#CC(C)c1ccc(-c2ccncc2)cc1Cl (stereo not drawn)	0.0227 µM and 0.073 µM	1.47 µM and 13.5 µM	0.0286 µM and 0.0348 µM	2.34 µM and 12.1 µM	0.0387 µM and 0.0515 µM	2.58 µM and 11.7 µM	0.579 µM and 1.75 µM	3.33 µM and 17.6 µM	< 0.005 µM and 0.0299 µM	7.66 µM and 37.7 µM	0.145 µM and 0.0946 µM	1.7 µM and 10.8 µM	0.687 µM and 2.25 µM	3.47 µM and 19.9 µM	0.0977 µM and 0.0932 µM	2.63 µM and 14.6 µM
O=C1/C(=C/c2ccc(F)cc2)COc2ccc(O)c(O)c21	1.05 µM	2.27 µM	2.99 µM	17.7 µM	2.76 µM	10.3 µM	4.61 µM	47.5 µM	2.16 µM	> 100 µM	0.26 µM	0.714 µM	3.5 µM	> 100 µM	4.45 µM	> 100 µM
O=C(CCN1CCCC1)Nc1ccc2c(Nc3ccc(F)cc3)c3ccccc3nc2c1	1.16 µM	2.55 µM	1.97 µM	4.12 µM	1.3 µM	3.51 µM	1.85 µM	3.64 µM	1.56 µM	8.73 µM	0.981 µM	5.51 µM	1.74 µM	4.54 µM	–	–
Nc1n[n+]([O-])c2ccc(Cl)cc2[n+]1[O-]	–	> 100 µM	–	54.3 µM	–	30.9 µM	–	> 100 µM	–	–	–	> 100 µM	–	> 100 µM	–	52.9 µM
CN(C)Cc1ccc(NC(=O)c2cncc(C#Cc3cnc(N)c4ncccc34)c2)cc1C(F)(F)F	1.43 µM	2.8 µM	0.673 µM	2.53 µM	0.293 µM	14 µM	1.56 µM	27 µM	1.82 µM	3.85 µM	1.24 µM	3.58 µM	1.4 µM	3.12 µM	–	–
O=C(O)c1cccc([As]=[As]c2cccc(C(=O)O)c2)c1 (stereo not drawn)	–	> 100 µM	–	> 100 µM	–	> 100 µM	–	55.6 µM	–	> 100 µM	–	59.5 µM	–	90.8 µM	–	–
O=C(Nc1cc(Cl)c(I)c(Cl)c1)C(F)(F)F	–	73.7 µM	–	> 100 µM	–	53.9 µM	–	–	–	56.8 µM	–	> 100 µM	–	75.7 µM	–	58.9 µM
COc1ccc(-c2nc(NC(=O)CS(=O)(=O)c3ccc(F)cc3)sc2C)cc1	18.9 µM	92 µM	–	–	15.3 µM	30.6 µM	15.2 µM	34.1 µM	24.1 µM	89.3 µM	17.6 µM	56.5 µM	14.8 µM	63.3 µM	24.1 µM	> 100 µM
CN[C@@H](C)C(=O)N[C@H](C(=O)N1CCC[C@H]1c1nc(C(=O)c2ccc(F)cc2)cs1)C1CCCCC1	36.1 µM	> 94.3 µM	15.1 µM	31.2 µM	16.5 µM	31.9 µM	2.93 µM	23.8 µM	11.1 µM	29.3 µM	16.6 µM	55.4 µM	19 µM	74.1 µM	–	–
O=S(=O)(F)Cc1ccccc1	–	> 100 µM	–	> 100 µM	–	> 100 µM	–	> 100 µM	–	> 100 µM	–	> 100 µM	–	–	–	> 100 µM
CNC(=O)[C@H](Cc1c[nH]c2ccccc12)NC(=O)[C@@H](CC(=O)NO)CC(C)C	> 25 µM	> 25 µM	> 25 µM	> 25 µM	> 25 µM	> 25 µM	> 25 µM	> 25 µM	> 25 µM	> 25 µM	–	–	> 25 µM	> 25 µM	> 25 µM	> 25 µM
CCN(Cc1ccc(Cl)c(Cl)c1)c1ccc2nc(N)nc(N)c2c1C	0.0457 µM	1.64 µM	1.25 µM	2.72 µM	0.148 µM	1.69 µM	1.48 µM	3.02 µM	–	–	0.0968 µM	2.83 µM	–	–	0.172 µM	2.22 µM
O=NNc1ccc(-c2ccccc2)cn1	–	58 µM	–	> 90.6 µM	–	> 50.3 µM	–	52 µM	–	> 100 µM	–	–	–	> 58.9 µM	–	> 78.8 µM
C=C1C(=O)OC2CC1C(OC(=O)/C=C/c1ccccc1)C/C(C)=C/CC/C(C)=C/CCC2(C)O (stereo not drawn)	–	3 µM	–	3.79 µM	–	> 19.9 µM	–	2.85 µM	–	6.99 µM	–	–	–	5.94 µM	–	5.46 µM
COc1ccc(CCN2CCCn3c2nc2ccccc2c3=O)cc1	0.876 µM	> 100 µM	> 100 µM	> 100 µM	0.0555 µM	1.13 µM	–	–	0.423 µM	> 100 µM	0.353 µM	> 100 µM	0.356 µM	> 100 µM	0.396 µM	> 100 µM
